Data: patent US7655756B2 (Johnson & Johnson Pharmaceutical Research & Development, LLC, priority 2005, dated 2010)

What was measured:
ERβ = ERβ (Homo sapiens, UniProt Q92731); assay: ThermoFluor thermal shift assay, ERβ; assay type: binding
pBIND-Gal4-ERRγ = assay: Cell based reporter (trans-activation) assay in HEK293E cells; conditions: luciferase reporter, Gal4-ERRγ and pACT-SRC2, 24 hours of compound treatment
Description: A cell based reporter assay was used to determine the functional response of the ERRγ hits. Transfections were performed in HEK293E cells that were maintained in DMEM supplemented in glutamine and 10% FBS. Co-transfections of 4 μg of a luciferase reporter plasmid and 4 μg of each pBIND-Gal4-ERRγ and pACT-SRC2 plasmids per T-75 flask were done using Lipofectamine as per manufacturers instructions. Twenty-four hours post-transfection, the cells were seeded in 96-well plates at density of 50,000 cells per well in assay media (DMEM phenol free, 5% charcoal stripped FBS). […] After 24 hours of compound treatment, cells were lysed and treated with the Promega Dual-Glo system. Firefly Luciferase activity was read using a luminescence plate reader, and data were normalized against Renilla luciferase activity. Data were fitted using subroutines available from GraphPad.

ERRγ = target: T1, ERRγ (Homo sapiens, UniProt P62508); assay: Isothermal titration calorimetry; assay type: binding; conditions: isothermal titration calorimetry
T1 construct: 6His; made in house; host or cells: E. coli BL21(DE3)
T1 sequence (P62508 229-458): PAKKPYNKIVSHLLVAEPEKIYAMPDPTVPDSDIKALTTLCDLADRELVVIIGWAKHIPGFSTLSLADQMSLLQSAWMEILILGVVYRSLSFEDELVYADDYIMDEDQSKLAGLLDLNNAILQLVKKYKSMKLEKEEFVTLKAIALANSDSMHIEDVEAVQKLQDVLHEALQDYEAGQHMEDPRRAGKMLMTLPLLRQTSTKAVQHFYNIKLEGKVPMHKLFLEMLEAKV
Description: The heat of interaction of the ligands with ERRγ molecules was measured by using the Omega titration calorimeter from Microcal Inc. In a typical titration, 1.4 mL of a 20 μM protein solution is titrated with a ligand solution of ˜0.4 mM concentration using a 100 μL syringe by ˜20 injections of 5-6 μL each. This syringe is also used to mix the reactants completely in the sample cell by rotating it at 400 rpm. For each injection, the area under the resulting peak is proportional to the heat of interaction, Q. Once this heat is corrected for the titrant dilution and normalized by the titrant solution concentration it becomes equal to the binding enthalpy, ΔHb, under nonsaturating conditions. The precision of the heat of each injection is about 0.5 μcal. One method of determining ΔHb is to average several intermediate peaks from the different sites. In addition to the binding enthalpies, one can obtain binding affinities, and overall stoichiometries of the complexes. The experimental calorimetric binding isotherm is the dependence of the total heat, Qr, (or dQrldX T) on the total concentration of ligand added, Xr. The above three parameters for each type of site are determined iteratively using the Marquardt algorithms as described previously.

ERRα = target: T2, ERRα (Homo sapiens, UniProt P11474); assay: ThermoFluor thermal shift assay, ERRα; assay type: binding; conditions: 100 μM test compound; 0.1 mg/mL protein, 25 mM HEPES pH 8.0, 25 μM ANS, 2% DMSO; Tm free protein 54.4 °C; read-out: ΔTm, thermal stabilization of ERRα
T2 sequence (P11474 193-421 limits assumed): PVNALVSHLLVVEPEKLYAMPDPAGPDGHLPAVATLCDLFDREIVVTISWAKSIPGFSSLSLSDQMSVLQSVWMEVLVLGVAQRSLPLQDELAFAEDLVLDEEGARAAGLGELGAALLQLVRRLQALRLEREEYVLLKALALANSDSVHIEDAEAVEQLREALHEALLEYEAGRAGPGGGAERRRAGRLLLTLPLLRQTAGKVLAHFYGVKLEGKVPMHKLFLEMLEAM

ERRγ-SRC2 complex = target: T3, ERRγ-SRC2 complex (Homo sapiens, UniProt P62508); assay: TR-FRET co-activator recruitment assay; assay type: biochemical; conditions: for Displacement of co-activator peptide from ERRγ (antagonism), in words: 6 nM ERRγ LBD, 6 nM GST-SRC-2 peptide
T3 construct: made in house; host or cells: E. coli BL21(DE3) (ERRγ LBD)
T3 sequence (P62508 229-458): T1 sequence (P62508 229-458)
Description: For FRET measurements, the reaction was buffered in 25 mM Tris pH 8, 2.5 mM Hepes, 20 mM KCl, 1 mM DTT, and 0.05 mg/mL delipidated BSA.
Time-resolved Fluorescence resonance energy transfer (FRET) experiments were performed to examine the functional response of ERRγ ligands.
For FRET measurements, the reaction was buffered in 25 mM Tris pH 8, 2.5 mM Hepes, 20 mM KCl, 1 mM DTT, and 0.05 mg/mL BSA (-lipids). […] Reactions were allowed to reach equilibrium at 25° C. for 4-18 hours before collecting data on the Analyst from LJL Biosystems (Molecular Devices Sunnyvale, Calif.). […] Dose response curves were fitted using a hyperbolic equation and the data reported is the average of three independent experiments.

Sequence of ERβ (Q92731 whole entry, species assumed, the tested form may be a part): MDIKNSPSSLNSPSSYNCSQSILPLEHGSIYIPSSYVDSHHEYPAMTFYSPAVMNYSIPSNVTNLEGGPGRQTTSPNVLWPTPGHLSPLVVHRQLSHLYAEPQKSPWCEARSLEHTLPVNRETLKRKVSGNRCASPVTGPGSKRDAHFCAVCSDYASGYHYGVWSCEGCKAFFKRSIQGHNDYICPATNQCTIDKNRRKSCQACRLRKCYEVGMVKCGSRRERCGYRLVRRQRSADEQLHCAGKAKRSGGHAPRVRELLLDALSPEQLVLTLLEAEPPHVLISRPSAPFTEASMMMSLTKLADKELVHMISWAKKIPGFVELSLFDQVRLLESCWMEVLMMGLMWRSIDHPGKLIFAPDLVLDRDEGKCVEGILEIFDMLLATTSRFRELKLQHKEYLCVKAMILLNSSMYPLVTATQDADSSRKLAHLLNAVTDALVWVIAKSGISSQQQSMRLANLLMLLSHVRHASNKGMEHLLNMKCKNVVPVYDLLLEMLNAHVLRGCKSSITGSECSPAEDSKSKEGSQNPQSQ

Q: How did the Kd (ERβ) turn out when `Cc1cc(O)ccc1Cl` [ClCH3Ph, 4-chloro, 3-methyl phenol] was run?
A: The Kd was 3.05 µM.

Q: And the ΔTm at 100 µM (ERβ; pH 8, read-out: ΔTm, thermal stabilization of ERβ)?
A: Its ΔTm at 100 µM is 2.4 °C.

Q: What about the “Change in transcriptional activity in trans-activation cellular assay, in words” value (pBIND-Gal4-ERRγ) of the same compound?
A: Its value is “not able to demonstrate”.

Q: And the “Binding enthalpy ΔHb” value (ERRγ)?
A: Its value is about -21 kcal/mol.

Q: And the ΔTm at 100 µM (ERRα)?
A: Its ΔTm at 100 µM is 0.1 °C.

Q: What about the “Enhancement in the affinity of the receptor for co-activator peptide fragments, in words” value (ERRγ-SRC2 complex) of the same compound?
A: The value was “not able to demonstrate”.

Q: What about the “Displacement of co-activator peptide from ERRγ (antagonism), in words” value (ERRγ-SRC2 complex) of the same compound?
A: Its value is “neither ligand displaced co-activator peptide”.

Q: And the “Displacement of co-activator peptide from ERRγ (antagonism), in words” value (ERRγ-SRC2 complex; listed as ClCh3PH)?
A: The value was “ineffective”.
